Test results reported in patent publication US20240300932A1, “N-PHENYLIMINE DERIVATIVE AND PREPARATION METHOD AND USE THEREOF” (Guizhou University, priority 2023, published 2024).

Columns and labels:
Portulaca oleracea = experiment: Post-emergence herbicidal activity test (stem and leaf spray, pot culture); format: in vivo; conditions: 3 weeks after spraying
Method in brief: (§1)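 Greenhouse pot-grown weeds (loam, pH 7) sprayed post-emergence at 2- to 3-leaf stage with acetone/Tween 80 formulation plus 1.5 liters/ha methyl oleate, at 10, 5 and 2.5 g/mu. Fresh-weight growth control rated 3 weeks later on 0–5 grade scale.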

Echinochloa crusgalli = experiment: as above; format: in vivo; conditions: 3 weeks after spraying
Method in brief: as §1

Setaria viridis = experiment: as above; format: in vivo; conditions: 3 weeks after spraying
Method in brief: as §1

Amaranthus retroflexus = experiment: as above; format: in vivo; conditions: 3 weeks after spraying
Method in brief: as §1

Abutilon theophrasti = experiment: as above; format: in vivo; conditions: 3 weeks after spraying
Method in brief: as §1

Trifoliumre pensL. = experiment: as above; format: in vivo; conditions: 3 weeks after spraying
Method in brief: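 Rates of 10, 5 and 2.5 g/mu were applied in a single spray-tower treatment to 2–3-leaf plants, thinned to 10 per pot. Formulation: acetone solution, Tween 80, 1.5 L/ha methyl oleate synergist. Weed response assessed after 3 further greenhouse weeks; mean of three experiments.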

SMILES | Post-emergence herbicidal activity, P. oleracea (grade) (Portulaca oleracea; dosage 2.5 g/mu) | Post-emergence herbicidal activity, P. oleracea (grade) (Portulaca oleracea; dosage 5 g/mu) | Post-emergence herbicidal activity, P. oleracea (grade) (Portulaca oleracea; dosage 10 g/mu) | Post-emergence herbicidal activity, E. crusgalli (grade) (Echinochloa crusgalli; dosage 2.5 g/mu) | Post-emergence herbicidal activity, E. crusgalli (grade) (Echinochloa crusgalli; dosage 5 g/mu) | Post-emergence herbicidal activity, E. crusgalli (grade) (Echinochloa crusgalli; dosage 10 g/mu) | Post-emergence herbicidal activity, S. viridis (grade) (Setaria viridis; dosage 2.5 g/mu) | Post-emergence herbicidal activity, S. viridis (grade) (Setaria viridis; dosage 5 g/mu) | Post-emergence herbicidal activity, S. viridis (grade) (Setaria viridis; dosage 10 g/mu) | Post-emergence herbicidal activity, A. retroflexus (grade) (Amaranthus retroflexus; dosage 2.5 g/mu) | Post-emergence herbicidal activity, A. retroflexus (grade) (Amaranthus retroflexus; dosage 5 g/mu) | Post-emergence herbicidal activity, A. retroflexus (grade) (Amaranthus retroflexus; dosage 10 g/mu) | Post-emergence herbicidal activity, A. theophrasti (grade) (Abutilon theophrasti; dosage 2.5 g/mu) | Post-emergence herbicidal activity, A. theophrasti (grade) (Abutilon theophrasti; dosage 5 g/mu) | Post-emergence herbicidal activity, A. theophrasti (grade) (Abutilon theophrasti; dosage 10 g/mu) | Post-emergence herbicidal activity, Trifoliumre pensL. (grade) (Trifoliumre pensL.; dosage 2.5 g/mu) | Post-emergence herbicidal activity, Trifoliumre pensL. (grade) (Trifoliumre pensL.; dosage 5 g/mu) | Post-emergence herbicidal activity, Trifoliumre pensL. (grade) (Trifoliumre pensL.; dosage 10 g/mu) | melting point
Cc1ccc(C(=O)COc2ccc(N3C(=O)C4=C(CCCC4)C3=O)c(F)c2)cc1 [Compound C15, 2-(2-fluoro-4-(2-oxo-2-(4-tolyl)ethoxy)phenyl)-4,5,6,7-tetrahydro-1H-isoindole-1,3(2H)-dione] | 5 (Grade 5: the growth control rate is greater than or equal to 85%) | 5 (Grade 5: the growth control rate is greater than or equal to 85%) | 5 (Grade 5: the growth control rate is greater than or equal to 85%) | 1 (Grade 1: the growth control rate is greater than or equal to 5% and less than 20%) | 2 (Grade 2: the growth control rate is greater than or equal to 20% and less than 40%) | 3 (Grade 3: the growth control rate is greater than or equal to 40% and less than 60%) | 2 (Grade 2: the growth control rate is greater than or equal to 20% and less than 40%) | 3 (Grade 3: the growth control rate is greater than or equal to 40% and less than 60%) | 4 (Grade 4: the growth control rate is greater than or equal to 60% and less than 85%) | 5 (Grade 5: the growth control rate is greater than or equal to 85%) | 5 (Grade 5: the growth control rate is greater than or equal to 85%) | 5 (Grade 5: the growth control rate is greater than or equal to 85%) | 5 (Grade 5: the growth control rate is greater than or equal to 85%) | 5 (Grade 5: the growth control rate is greater than or equal to 85%) | 5 (Grade 5: the growth control rate is greater than or equal to 85%) | 5 (Grade 5: the growth control rate is greater than or equal to 85%) | 5 (Grade 5: the growth control rate is greater than or equal to 85%) | 5 (Grade 5: the growth control rate is greater than or equal to 85%) | 144 to 146 °C
CC(=O)Nc1cc(N2C(=O)C3=C(CCCC3)C2=O)c(F)cc1Cl [Compound D1, N-(2-chloro-5-(1,3-dioxo-1,3,4,5,6,7-hexahydro-2H-isoindole-2-yl)-4-fluorophenyl)acetamide] | – | – | 5 (Grade 5: the growth control rate is greater than or equal to 85%) | – | – | 3 (Grade 3: the growth control rate is greater than or equal to 40% and less than 60%) | – | – | 4 (Grade 4: the growth control rate is greater than or equal to 60% and less than 85%) | – | – | 5 (Grade 5: the growth control rate is greater than or equal to 85%) | – | – | 5 (Grade 5: the growth control rate is greater than or equal to 85%) | – | – | 5 (Grade 5: the growth control rate is greater than or equal to 85%) | 155 to 157 °C
C/C=C/C(=O)Nc1cc(N2C(=O)C3=C(CCCC3)C2=O)c(F)cc1Cl [Compound D5, (E)-N-(2-chloro-5-(1,3-dioxo-1,3,4,5,6,7-hexahydro-2H-isoindole-2-yl)-4-fluorophenyl)but-2-enamide] | – | – | 5 (Grade 5: the growth control rate is greater than or equal to 85%) | – | – | 3 (Grade 3: the growth control rate is greater than or equal to 40% and less than 60%) | – | – | 4 (Grade 4: the growth control rate is greater than or equal to 60% and less than 85%) | – | – | 5 (Grade 5: the growth control rate is greater than or equal to 85%) | – | – | 5 (Grade 5: the growth control rate is greater than or equal to 85%) | – | – | 5 (Grade 5: the growth control rate is greater than or equal to 85%) | 133 to 138 °C
O=C(Nc1cc(N2C(=O)C3=C(CCCC3)C2=O)c(F)cc1Cl)C1CC1 [Compound D8, N-(2-chloro-5-(1,3-dioxo-1,3,4,5,6,7-hexahydro-2H-isoindole-2-yl)-4-fluorophenyl)cyclopropanecarboxamide] | – | – | 5 (Grade 5: the growth control rate is greater than or equal to 85%) | – | – | 3 (Grade 3: the growth control rate is greater than or equal to 40% and less than 60%) | – | – | 3 (Grade 3: the growth control rate is greater than or equal to 40% and less than 60%) | – | – | 5 (Grade 5: the growth control rate is greater than or equal to 85%) | – | – | 5 (Grade 5: the growth control rate is greater than or equal to 85%) | – | – | 5 (Grade 5: the growth control rate is greater than or equal to 85%) | 208 to 210 °C
O=C(Nc1cc(N2C(=O)C3=C(CCCC3)C2=O)c(F)cc1Cl)C1CCC1 [Compound D9, N-(2-chloro-5-(1,3-dioxo-1,3,4,5,6,7-hexahydro-2H-isoindole-2-yl)-4-fluorophenyl)cyclobutanecarboxamide] | – | – | 5 (Grade 5: the growth control rate is greater than or equal to 85%) | – | – | 3 (Grade 3: the growth control rate is greater than or equal to 40% and less than 60%) | – | – | 3 (Grade 3: the growth control rate is greater than or equal to 40% and less than 60%) | – | – | 5 (Grade 5: the growth control rate is greater than or equal to 85%) | – | – | 5 (Grade 5: the growth control rate is greater than or equal to 85%) | – | – | 5 (Grade 5: the growth control rate is greater than or equal to 85%) | 145 to 147 °C
O=C(Nc1cc(N2C(=O)C3=C(CCCC3)C2=O)c(F)cc1Cl)C1CCCCC1 [Compound D10, N-(2-chloro-5-(1,3-dioxo-1,3,4,5,6,7-hexahydro-2H-isoindole-2-yl)-4-fluorophenyl)cyclohexanecarboxamide] | – | – | 5 (Grade 5: the growth control rate is greater than or equal to 85%) | – | – | 3 (Grade 3: the growth control rate is greater than or equal to 40% and less than 60%) | – | – | 4 (Grade 4: the growth control rate is greater than or equal to 60% and less than 85%) | – | – | 5 (Grade 5: the growth control rate is greater than or equal to 85%) | – | – | 5 (Grade 5: the growth control rate is greater than or equal to 85%) | – | – | 5 (Grade 5: the growth control rate is greater than or equal to 85%) | 93 to 97 °C
O=C(COC(=O)c1cc(N2C(=O)C3=C(CCCC3)C2=O)c(F)cc1Cl)c1ccc(Cl)cc1 [Compound E1, 2-(4-chlorophenyl)-2-oxoethyl-2-chloro-5-(1,3-dioxo-1,3,4,5,6,7-hexahydro-2H-isoindole-2-yl)-4-fluorobenzoate] | – | – | 5 (Grade 5: the growth control rate is greater than or equal to 85%) | – | – | 3 (Grade 3: the growth control rate is greater than or equal to 40% and less than 60%) | – | – | 4 (Grade 4: the growth control rate is greater than or equal to 60% and less than 85%) | – | – | 5 (Grade 5: the growth control rate is greater than or equal to 85%) | – | – | 5 (Grade 5: the growth control rate is greater than or equal to 85%) | – | – | 5 (Grade 5: the growth control rate is greater than or equal to 85%) | 138 to 141 °C
O=C(COC(=O)c1cc(N2C(=O)C3=C(CCCC3)C2=O)c(F)cc1Cl)c1ccccc1 [Compound E2, 2-oxo-2-phenylethyl-2-chloro-5-(1,3-dioxo-1,3,4,5,6,7-hexahydro-2H-isoindole-2-yl)-4-fluorobenzoate] | – | – | 5 (Grade 5: the growth control rate is greater than or equal to 85%) | – | – | 3 (Grade 3: the growth control rate is greater than or equal to 40% and less than 60%) | – | – | 4 (Grade 4: the growth control rate is greater than or equal to 60% and less than 85%) | – | – | 5 (Grade 5: the growth control rate is greater than or equal to 85%) | – | – | 5 (Grade 5: the growth control rate is greater than or equal to 85%) | – | – | 4 (Grade 4: the growth control rate is greater than or equal to 60% and less than 85%) | 133 to 136 °C
